Assay results taken from patent US11312713B2, “Imidazo[4,5-C]quinoline derivatives as LRRK2 inhibitors” (Pfizer Inc., priority 2017, dated 2022).
Read-outs that look alike come from different tables or passages of the source.

Columns and labels:
mutant G2019S LRRK2 = mutant G2019S LRRK2 (Homo sapiens (Human), UniProt Q5S007, G2019S); test: LRRK2 kinase assay (LanthaScreen), G2019S mutant; type: biochemical; conditions: G2019S mutant LRRK2, read-out: LRRK2, G2019S IC50
Protocol: (§1) LRRK2 kinase activity was measured using Lantha Screen technology from Invitrogen. GST-tagged truncated LRRK2 from Invitrogen (Cat #PV4874) was incubated with a fluorescein-labeled peptide substrate based upon ezrin/radixin/moesin (ERM), also known as LRRKtide (Invitrogen cat #PR8976A), in the presence of a dose response of compound. Upon completion, the assay was stopped and detected with a terbium labeled anti-phospho-ERM antibody (Invitrogen, cat #PR8975A). […] Using Echo acoustic dispensing, 60 nL of compound was transferred to a low volume Corning 384-well assay plate. 3 μL of a working solution of substrate (200 nM LRRKtide, 2 mM ATP) prepared in assay buffer (50 mM HEPES, pH 7.5, 3 mM MgCl2, with 2 mM DTT and 0.01% Brij35 added fresh) was added to the 60 nL compound assay plate. The kinase reaction was started with 3 μL of a working solution of LRRK2 enzyme at a concentration of 4 μg/m L. The final reaction concentrations were 100 nM LRRKtide, 1 mM ATP, 2 μg/mL LRRK2 enzyme and a compound dose response with a top dose of 3 μM. The reaction was allowed to progress at room temperature for 30 minutes and then stopped with the addition of 6 μL of detection buffer (20 mM Tris pH 7.6, 0.01% NP-40, 6 mM EDTA with 2 nM terbium labeled antiphospho-ERM). […] All final concentrations of substrate ATP and enzyme were the same.

[1] = target: LRRK2, WT (GST-tagged truncated LRRK2) (Homo sapiens, UniProt Q5S007); test: LRRK2 kinase assay (LanthaScreen), wild type; type: biochemical; conditions: wild type LRRK2
Protocol: as §1

[2] = LanthaScreen, LRRKtide substrate
[3] = data obtained using the formate salt of the Example

Chain of mutant G2019S LRRK2 (Q5S007 whole entry G2019S, the tested form may be a part): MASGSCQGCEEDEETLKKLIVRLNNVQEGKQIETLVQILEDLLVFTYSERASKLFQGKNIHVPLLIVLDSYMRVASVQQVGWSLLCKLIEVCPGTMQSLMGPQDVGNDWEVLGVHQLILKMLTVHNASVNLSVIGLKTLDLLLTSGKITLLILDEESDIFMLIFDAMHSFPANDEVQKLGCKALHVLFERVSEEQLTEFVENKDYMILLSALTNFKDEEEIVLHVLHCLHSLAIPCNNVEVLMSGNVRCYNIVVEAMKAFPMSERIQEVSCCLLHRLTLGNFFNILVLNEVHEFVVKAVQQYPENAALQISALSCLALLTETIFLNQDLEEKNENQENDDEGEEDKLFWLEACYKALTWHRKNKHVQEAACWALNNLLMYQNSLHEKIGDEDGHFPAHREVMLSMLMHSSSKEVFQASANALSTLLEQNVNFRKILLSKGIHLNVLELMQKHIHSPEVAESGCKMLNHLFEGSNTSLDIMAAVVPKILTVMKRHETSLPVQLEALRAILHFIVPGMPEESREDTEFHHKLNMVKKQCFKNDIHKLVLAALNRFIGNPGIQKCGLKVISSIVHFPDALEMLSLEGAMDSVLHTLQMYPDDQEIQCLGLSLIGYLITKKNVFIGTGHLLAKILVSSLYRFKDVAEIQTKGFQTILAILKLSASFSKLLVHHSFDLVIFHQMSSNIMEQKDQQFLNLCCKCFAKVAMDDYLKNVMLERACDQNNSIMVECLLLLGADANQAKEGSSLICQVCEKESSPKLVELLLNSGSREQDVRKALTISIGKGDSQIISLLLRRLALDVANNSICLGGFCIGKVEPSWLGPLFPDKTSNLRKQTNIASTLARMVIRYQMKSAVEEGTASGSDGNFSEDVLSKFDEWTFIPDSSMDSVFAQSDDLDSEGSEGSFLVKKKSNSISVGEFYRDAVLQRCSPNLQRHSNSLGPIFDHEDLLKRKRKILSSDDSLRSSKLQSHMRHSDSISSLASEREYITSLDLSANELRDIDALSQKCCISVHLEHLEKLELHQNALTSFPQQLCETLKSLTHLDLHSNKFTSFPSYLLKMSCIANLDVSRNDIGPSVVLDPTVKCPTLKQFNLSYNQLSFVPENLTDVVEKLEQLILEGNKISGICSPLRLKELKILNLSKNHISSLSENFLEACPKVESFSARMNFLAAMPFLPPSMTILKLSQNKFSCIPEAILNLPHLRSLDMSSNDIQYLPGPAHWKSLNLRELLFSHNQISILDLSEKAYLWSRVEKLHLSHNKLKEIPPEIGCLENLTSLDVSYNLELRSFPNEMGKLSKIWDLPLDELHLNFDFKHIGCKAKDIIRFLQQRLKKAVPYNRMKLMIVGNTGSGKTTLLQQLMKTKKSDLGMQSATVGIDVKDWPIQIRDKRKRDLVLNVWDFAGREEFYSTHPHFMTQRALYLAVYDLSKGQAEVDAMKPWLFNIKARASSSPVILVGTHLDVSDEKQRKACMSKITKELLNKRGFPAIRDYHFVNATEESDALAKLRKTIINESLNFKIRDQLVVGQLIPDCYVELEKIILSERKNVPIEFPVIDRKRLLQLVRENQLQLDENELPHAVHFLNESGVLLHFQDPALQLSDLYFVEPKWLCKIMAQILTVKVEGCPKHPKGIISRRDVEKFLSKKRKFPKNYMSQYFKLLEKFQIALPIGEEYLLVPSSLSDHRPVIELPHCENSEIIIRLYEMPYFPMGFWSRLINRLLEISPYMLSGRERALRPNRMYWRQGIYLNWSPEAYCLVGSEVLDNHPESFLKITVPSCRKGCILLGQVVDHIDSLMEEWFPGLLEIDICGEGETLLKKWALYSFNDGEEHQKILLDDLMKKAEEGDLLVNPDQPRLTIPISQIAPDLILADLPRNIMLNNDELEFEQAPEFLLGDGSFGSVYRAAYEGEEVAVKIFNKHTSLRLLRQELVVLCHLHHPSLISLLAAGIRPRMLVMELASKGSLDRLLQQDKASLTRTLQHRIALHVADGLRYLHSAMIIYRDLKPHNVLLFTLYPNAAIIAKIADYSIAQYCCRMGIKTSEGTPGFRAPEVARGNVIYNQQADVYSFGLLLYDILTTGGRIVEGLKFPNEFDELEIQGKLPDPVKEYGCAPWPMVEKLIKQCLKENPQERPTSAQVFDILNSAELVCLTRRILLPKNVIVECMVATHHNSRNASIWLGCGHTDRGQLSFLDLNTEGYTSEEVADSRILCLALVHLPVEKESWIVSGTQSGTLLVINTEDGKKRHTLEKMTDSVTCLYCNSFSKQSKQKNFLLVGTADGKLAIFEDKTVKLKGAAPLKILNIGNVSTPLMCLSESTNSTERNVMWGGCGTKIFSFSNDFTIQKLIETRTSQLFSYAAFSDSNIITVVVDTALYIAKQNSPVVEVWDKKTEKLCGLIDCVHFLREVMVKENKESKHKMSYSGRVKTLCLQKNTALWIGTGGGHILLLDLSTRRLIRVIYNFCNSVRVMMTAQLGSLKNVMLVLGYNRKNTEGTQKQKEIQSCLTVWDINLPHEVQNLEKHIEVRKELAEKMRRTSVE

Cc1cnc(C(O)c2nc3cnc4ccc(Cl)cc4c3n2[C@@H]2CCO[C@H](C)C2)cn1 (single isomer, unassigned) [Example 15]
IC50 (mutant G2019S LRRK2; [2]): 18.4 nM | IC50 [1, 2]: 16.3 nM

CCc1nc2cnc3ccc(Cl)cc3c2n1[C@@H]1CCO[C@H](CC#N)C1 [Example 1, [(2S,4R)-4-(8-Chloro-2-ethyl-1H-imidazo[4,5-c]quinolin-1-yl)tetrahydro-2H-pyran-2-yl]acetonitrile]
IC50 (mutant G2019S LRRK2; [2]): 8.87 nM | IC50 [1, 2]: 10.2 nM

Cc1nn2cc(Cc3nc4cnc5ccc(F)cc5c4n3[C@@H]3CCO[C@H](C)C3)nc2s1 [Example 28, 8-fluoro-2-[(2-methylimidazo[2,1-b][1,3,4]thiadiazol-6-yl)methyl]-1-[(2R,4R)-2-methyltetrahydro-2H-pyran-4-yl]-1H-imidazo[4,5-c]quinoline]
IC50 (mutant G2019S LRRK2; [2]): 4.59 nM | IC50 [1, 2]: 7.18 nM

Cc1cnc(Cc2nc3cnc4ccc(C(F)(F)F)cc4c3n2[C@@H]2CCO[C@H](C)C2)cn1 [Example 29, 2-[(5-methylpyrazin-2-yl)methyl]-1-[(2R,4R)-2-methyltetrahydro-2H-pyran-4-yl]-8-(trifluoromethyl)-1H-imidazo[4,5-c]quinoline]
IC50 (mutant G2019S LRRK2; [2]): 4.13 nM | IC50 [1, 2]: 6.47 nM

C[C@@H]1C[C@H](n2c(C3CCCC3)nc3cnc4ccc(C#N)cc4c32)CCO1 [Example 30, 2-cyclopentyl-1-[(2R,4R)-2-methyltetrahydro-2H-pyran-4-yl]-1H-imidazo[4,5-c]quinoline-8-carbonitrile]
IC50 (mutant G2019S LRRK2; [2]): 22 nM | IC50 [1, 2]: 20.6 nM

Cc1nc2cnc3ccc(Cl)cc3c2n1C1CCOC(CC#N)C1 (stereo not drawn) [Example 31, [cis-4-(8-chloro-2-methyl-1H-imidazo[4,5-c]quinolin-1-yl)tetrahydro-2H-pyran-2-yl]acetonitrile]
IC50 (mutant G2019S LRRK2; [2]): 8.67 nM | IC50 [1, 2]: 7.86 nM

Cc1nc(Cc2nc3cnc4ccc(C#N)cc4c3n2C2CN(C)CC2(F)F)no1 (centres unmarked) [Example 32, 1-(4,4-difluoro-1-methylpyrrolidin-3-yl)-2-[(5-methyl-1,2,4-oxadiazol-3-yl)methyl]-1H-imidazo[4,5-c]quinoline-8-carbonitrile]
IC50 (mutant G2019S LRRK2; [2]): 5.98 nM | IC50 [1, 2]: 4.59 nM

Cc1cnc(Cc2nc3cnc4ccc(C#N)cc4c3n2[C@@H]2CCN(C)C2)cn1 [Example 33, 2-[(5-methylpyrazin-2-yl)methyl]-1-[(3R)-1-methylpyrrolidin-3-yl]-1H-imidazo[4,5-c]quinoline-8-carbonitrile]
IC50 (mutant G2019S LRRK2; [3]): 6.82 nM | IC50 [1, 3]: 8.35 nM

Cc1nnn(Cc2nc3cnc4ccc(C#N)cc4c3n2[C@@H]2CCN(C)C2)n1 [Example 34, 1-[(3R)-1-methylpyrrolidin-3-yl]-2-[(5-methyl-2H-tetrazol-2-yl)methyl]-1H-imidazo [4,5-c]quinoline-8-carbonitrile]
IC50 (mutant G2019S LRRK2; [2]): 5.04 nM | IC50 [1, 2]: 5.53 nM

Cc1cc(Cc2nc3cnc4ccc(C#N)cc4c3n2[C@@H]2CCN(C)C2)on1 [Example 35, 2-[(3-methyl-1,2-oxazol-5-yl)methyl]-1-[(3R)-1-methylpyrrolidin-3-yl]-1H-imidazo [4,5-c]quinoline-8-carbonitrile]
IC50 (mutant G2019S LRRK2; [2]): 6.17 nM | IC50 [1, 2]: 7.57 nM

COc1cnn(Cc2nc3cnc4ccc(C#N)cc4c3n2[C@@H]2CCN(C)C2)c1 [Example 36, 2-[(4-methoxy-1H-pyrazol-1-yl)methyl]-1-[(3R)-1-methylpyrrolidin-3-yl]-1H-imidazo[4,5-c]quinoline-8-carbonitrile]
IC50 (mutant G2019S LRRK2; [2]): 4.63 nM | IC50 [1, 2]: 5 nM

Cc1nnc(Cc2nc3cnc4ccc(C#N)cc4c3n2[C@@H]2CCN(C)C2)s1 [Example 37, 1-[(3R)-1-methylpyrrolidin-3-yl]-2-[(5-methyl-1,3,4-thiadiazol-2-yl)methyl]-1H-imidazo[4,5-c]quinoline-8-carbonitrile]
IC50 (mutant G2019S LRRK2; [2]): 12.6 nM | IC50 [1, 2]: 5.26 nM

Cc1cnc(Cc2nc3cnc4ccc(C#N)cc4c3n2[C@@H]2CCN(C)C2)o1 [Example 38, 2-[(5-methyl-1,3-oxazol-2-yl)methyl]-1-[(3R)-1-methylpyrrolidin-3-yl]-1H-imidazo [4,5-c]quinoline-8-carbonitrile]
IC50 (mutant G2019S LRRK2; [2]): 12.9 nM | IC50 [1, 2]: 7.49 nM

C[C@@H]1C[C@H](n2c(Cc3cnc(C(F)(F)F)cn3)nc3cnc4ccc(C#N)cc4c32)CCO1 [Example 39, 1-[(2R,4R)-2-methyltetrahydro-2H-pyran-4-yl]-2-{[5-(trifluoromethyl)pyrazin-2-yl]methyl}-1H-imidazo[4,5-c]quinoline-8-carbonitrile]
IC50 (mutant G2019S LRRK2; [2]): 9.3 nM | IC50 [1, 2]: 17.4 nM

Cc1cc(Cc2nc3cnc4ccc(Cl)cc4c3n2[C@@H]2CCN(C)C2)ncn1 [Example 40, 8-chloro-2-[(6-methylpyrimidin-4-yl)methyl]-1-[(3R)-1-methylpyrrolidin-3-yl]-1H-imidazo[4,5-c]quinoline]
IC50 (mutant G2019S LRRK2; [2]): 13.9 nM | IC50 [1, 2]: 9.73 nM

COc1cnn(Cc2nc3cnc4ccc(C(F)(F)F)cc4c3n2[C@@H]2CCO[C@H](C)C2)c1 [Example 41, 2-[(4-methoxy-1H-pyrazol-1-yl)methyl]-1-[(2R,4R)-2-methyltetrahydro-2H-pyran-4-yl]-8-(trifluoromethyl)-1H-imidazo[4,5-c]quinoline]
IC50 (mutant G2019S LRRK2; [2]): 3.87 nM | IC50 [1, 2]: 11.1 nM

Cc1nc(Cc2nc3cnc4ccc(Cl)cc4c3n2[C@@H]2CCN(C)C2)no1 [Example 42, 8-chloro-2-[(5-methyl-1,2,4-oxadiazol-3-yl)methyl]-1-[(3R)-1-methylpyrrolidin-3-yl]-1H-imidazo[4,5-c]quinoline]
IC50 (mutant G2019S LRRK2; [2]): 26 nM | IC50 [1, 2]: 12.9 nM

Cc1nc(Cc2nc3cnc4ccc(Cl)cc4c3n2C2CN(C)CC2(F)F)no1 (centres unmarked) [Example 45, 8-chloro-1-(4,4-difluoro-1-methylpyrrolidin-3-yl)-2-[(5-methyl-1,2,4-oxadiazol-3-yl)methyl]-1H-imidazo[4,5-c]quinoline]
IC50 (mutant G2019S LRRK2; [2]): 5.82 nM | IC50 [1, 2]: 8.13 nM

Cc1cn(Cc2nc3cnc4ccc(Cl)cc4c3n2C2CCOCC2(F)F)nn1 (centres unmarked) [Example 46, 8-chloro-1-(3,3-difluorotetrahydro-2H-pyran-4-yl)-2-[(4-methyl-1H-1,2,3-triazol-1-yl)methyl]-1H-imidazo[4,5-c]quinoline]
IC50 (mutant G2019S LRRK2; [2]): 7.66 nM | IC50 [1, 2]: 9.31 nM

CN1CC(n2c(Cn3cc(C4CC4)nn3)nc3cnc4ccc(Cl)cc4c32)C(F)(F)C1 (centres unmarked) [Example 47, 8-chloro-2-[(4-cyclopropyl-1H-1,2,3-triazol-1-yl)methyl]-1-(4,4-difluoro-1-methylpyrrolidin-3-yl)-1H-imidazo[4,5-c]quinoline]
IC50 (mutant G2019S LRRK2; [2]): 1.42 nM | IC50 [1, 2]: 2.8 nM

Cc1cn(Cc2nc3cnc4ccc(Cl)cc4c3n2C2CN(C)CC2(F)F)nn1 (centres unmarked) [Example 48, 8-chloro-1-(4,4-difluoro-1-methylpyrrolidin-3-yl)-2-[(4-methyl-1H-1,2,3-triazol-1-yl)methyl]-1H-imidazo[4,5-c]quinoline]
IC50 (mutant G2019S LRRK2; [2]): 0.938 nM | IC50 [1, 2]: 3.27 nM

Cc1nnn(Cc2nc3cnc4ccc(Cl)cc4c3n2C2CN(C)CC2(F)F)n1 (centres unmarked) [Example 49, 8-chloro-1-(4,4-difluoro-1-methylpyrrolidin-3-yl)-2-[(5-methyl-2H-tetrazol-2-yl)methyl]-1H-imidazo[4,5-c]quinoline]
IC50 (mutant G2019S LRRK2; [2]): 1.34 nM | IC50 [1, 2]: 4.48 nM

Cc1cnc(Cc2nc3cnc4ccc(Cl)cc4c3n2C2CN(C)CC2(F)F)cn1 (centres unmarked) [Example 50, 8-chloro-1-(4,4-difluoro-1-methylpyrrolidin-3-yl)-2-[(5-methylpyrazin-2-yl)methyl]-1H-imidazo[4,5-c]quinoline]
IC50 (mutant G2019S LRRK2; [2]): 1.11 nM | IC50 [1, 2]: 5.06 nM

Cc1cc(Cc2nc3cnc4ccc(Cl)cc4c3n2C2CN(C)CC2(F)F)no1 (centres unmarked) [Example 51, 8-chloro-1-(4,4-difluoro-1-methylpyrrolidin-3-yl)-2-[(5-methyl-1,2-oxazol-3-yl)methyl]-1H-imidazo[4,5-c]quinoline]
IC50 (mutant G2019S LRRK2; [2]): 3.49 nM | IC50 [1, 2]: 5.78 nM

Cc1cc(Cc2nc3cnc4ccc(Cl)cc4c3n2C2CN(C)CC2(F)F)no1 (centres unmarked) [Example 52, 8-chloro-1-(4,4-difluoro-1-methylpyrrolidin-3-yl)-2-[(5-methyl-1,2-oxazol-3-yl)methyl]-1H-imidazo[4,5-c]quinoline]
IC50 (mutant G2019S LRRK2; [2]): 12.9 nM | IC50 [1, 2]: 15.1 nM

COCc1cn(Cc2nc3cnc4ccc(F)cc4c3n2C2CN(C)CC2(F)F)nn1 (centres unmarked) [Example 53, 1-(4,4-difluoro-1-methylpyrrolidin-3-yl)-8-fluoro-2-{[4-(methoxymethyl)-1H-1,2,3-triazol-1-yl]methyl}-1H-imidazo[4,5-c]quinoline]
IC50 (mutant G2019S LRRK2; [2]): 7.49 nM | IC50 [1, 2]: 7.51 nM

COCc1cn(Cc2nc3cnc4ccc(Cl)cc4c3n2C2CCOCC2(F)F)nn1 (centres unmarked) [Example 55, 8-chloro-1-(3,3-difluorotetrahydro-2H-pyran-4-yl)-2-{[4-(methoxymethyl)-1H-1,2,3-triazol-1-yl]methyl}-1H-imidazo[4,5-c]quinoline]
IC50 (mutant G2019S LRRK2; [2]): 6.49 nM | IC50 [1, 2]: 11.3 nM

Cc1nc(Cc2nc3cnc4ccc(C#N)cc4c3n2[C@@H]2CCN(CC(F)(F)F)C2)no1 [Example 56, 2-[(5-methyl-1,2,4-oxadiazol-3-yl)methyl]-1-[(3R)-1-(2,2,2-trifluoroethyl)pyrrolidin-3-yl]-1H-imidazo[4,5-c]quinoline-8-carbonitrile]
IC50 (mutant G2019S LRRK2; [2]): 6.48 nM | IC50 [1, 2]: 6.46 nM
